# Experimental data from patent US11584709B2, “Multitarget drug for treating diseases in mammals” (“PHARMENTERPRISES EURASIA” LIMITED LIABILITY COMPANY, priority 2017, dated 2023).
# Experiments:
# [1] = biological target: T1, bradykinin receptors B1 (BRDKB1) (Homo sapiens, UniProt P46663); experiment: Activity of bradykinin receptor BRDKB1, intracellular calcium, CHO cells; type: cell-based; conditions: antagonist, LysdesArg9-BK agonist (3 nM)
# T1 construct: expressed in transfected cells; host or cells: CHO cells
# T1 sequence (P46663 1-353): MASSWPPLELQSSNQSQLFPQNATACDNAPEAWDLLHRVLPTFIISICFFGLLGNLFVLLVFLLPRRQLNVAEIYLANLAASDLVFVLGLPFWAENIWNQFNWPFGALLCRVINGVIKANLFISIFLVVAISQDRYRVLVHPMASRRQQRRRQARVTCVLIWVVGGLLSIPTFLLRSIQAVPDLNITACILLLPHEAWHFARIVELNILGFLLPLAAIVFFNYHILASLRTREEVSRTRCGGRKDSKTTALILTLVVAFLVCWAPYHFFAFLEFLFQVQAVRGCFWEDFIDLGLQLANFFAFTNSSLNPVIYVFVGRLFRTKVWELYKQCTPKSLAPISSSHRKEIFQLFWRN
# Protocol: Compound 1 was dissolved in DMSO to a concentration of 100 mM; then a stock solution was serially diluted with DMSO. The maximum starting concentration of the substance is 100 μM. The effect was determined at 5 concentrations of the tested compounds, each concentration was studied twice. CHO cells expressing bradykinin receptors B1 were used in the experiment, these cells, after preincubation with a LysdesArg9-BK agonist (3 nM), were incubated with the test compound. The activity of receptors was determined according to the intracellular calcium concentration by fluorescence spectroscopy (Eur J Pharmacol. 2000 Mar. 24; 392(1-2):1-9).
# [2] = biological target: T2, prokineticin receptor type 1 (PK1) (Homo sapiens, UniProt Q8TCW9); experiment: Activity of prokineticin receptors type 1 (PK1), intracellular calcium, HEK-293 cells; type: cell-based; conditions: antagonist, PK1 agonist (3 nM)
# T2 construct: expressed in transfected cells; host or cells: HEK-293 cells
# T2 sequence (Q8TCW9 whole entry): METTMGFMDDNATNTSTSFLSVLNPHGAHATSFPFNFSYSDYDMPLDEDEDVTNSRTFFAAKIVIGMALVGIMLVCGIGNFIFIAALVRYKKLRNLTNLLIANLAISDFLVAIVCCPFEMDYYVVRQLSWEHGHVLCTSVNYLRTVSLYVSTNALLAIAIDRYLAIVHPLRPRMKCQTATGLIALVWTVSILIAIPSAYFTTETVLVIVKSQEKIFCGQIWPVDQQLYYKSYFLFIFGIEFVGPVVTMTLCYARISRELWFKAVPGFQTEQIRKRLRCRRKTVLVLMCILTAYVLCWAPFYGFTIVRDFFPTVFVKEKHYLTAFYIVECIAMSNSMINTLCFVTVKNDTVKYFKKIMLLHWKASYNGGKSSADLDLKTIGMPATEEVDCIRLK
# Protocol: (§1) Compound 1 was dissolved in DMSO to a concentration of 100 mM; then a stock solution was serially diluted with DMSO. The maximum starting concentration of the substance is 100 μM. The effect was determined at 5 concentrations of the tested compounds, each concentration was studied twice. HEK-293 cells expressing prokineticin receptors PK1 were used in the experiment, these cells, after preincubation with a PK1 agonist (3 nM), were incubated with the test compound. The activity of receptors was determined according to the intracellular calcium concentration by the fluorescence spectroscopy (Mol Pharmacol. 2005 June; 67(6):2070-6).
# [3] = biological target: T3, prokineticin receptor type 2 (PK2) (Homo sapiens, UniProt Q8NFJ6); experiment: Activity of prokineticin receptors type 2 (PK2), intracellular calcium, HEK-293 cells; type: cell-based; conditions: antagonist, PK2 agonist (2 nM)
# T3 construct: expressed in transfected cells; host or cells: HEK-293 cells
# T3 sequence (Q8NFJ6 whole entry): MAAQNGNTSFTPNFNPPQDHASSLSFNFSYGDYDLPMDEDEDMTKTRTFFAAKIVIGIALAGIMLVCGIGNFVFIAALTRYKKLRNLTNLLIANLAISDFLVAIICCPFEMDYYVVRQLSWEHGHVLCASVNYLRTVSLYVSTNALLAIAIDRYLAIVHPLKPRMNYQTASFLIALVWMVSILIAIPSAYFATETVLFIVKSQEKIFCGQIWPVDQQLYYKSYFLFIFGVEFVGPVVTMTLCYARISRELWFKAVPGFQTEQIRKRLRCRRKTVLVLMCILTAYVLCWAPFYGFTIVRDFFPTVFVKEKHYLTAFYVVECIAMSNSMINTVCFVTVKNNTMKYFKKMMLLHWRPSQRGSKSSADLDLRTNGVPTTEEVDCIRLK
# Protocol: as §1, with “prokinetycin” for “prokineticin”, “PK2” for “PK1”, “(2” for “(3”
# [4] = tested on: diarrhea induced by castor oil; experiment: Mouse model of diarrhea induced by castor oil; type: in vivo, Balb/c mice
# Protocol: Balb/c mice, which starved for 24 hours, were given castor oil intragastrically. Then the animals were encaged into individual cages with a bottom covered with white paper, and time before the onset of diarrhea was noted. The observation time is 4 hours (J Pharm Pharmacol. 2015 February; 67(2):244-54).
# [5] = Stability in blood plasma, human; type: in vitro ADME; conditions: 1 μM, 37° C.
# Protocol: (§2) Compound 1 at a concentration of 1 μM was incubated for 24 hours in the blood plasma of human and various animal species (rats, mice, guinea pigs, rabbits, horses, dogs, bull, pygmy hogs) at 37° C. Aliquots were taken at time points of 0, 0.25, 1, 2, 4, 8 and 24 hours. In the case of blood plasma of rabbits and monkeys, Compound 1 was incubated for 4 hours, and aliquots were taken at time points 0, 0.25, 1, 4. After the protein precipitation with acetonitrile, samples were analyzed by HPLC-MS/MS to determine the concentration of Compound 1. Verapamil was used as a stable control.
# [6] = Stability in blood plasma, dog; type: in vitro ADME; conditions: 1 μM, 37° C.
# Protocol: as §2
# [7] = Stability in blood plasma, monkey; type: in vitro ADME; conditions: 1 μM, 37° C.
# Protocol: as §2
# [8] = Stability in blood plasma, rat; type: in vitro ADME; conditions: for Content, % from the initial, Mean (n = 2): rat blood plasma, 1 μM, 37° C.
# Protocol: as §2
smiles,measurement,setting,value
"O=C(Cc1ccc(O)cc1)N[C@@H](Cc1ccccc1)C(=O)OCc1ccccc1 [Compound 1, benzyl (2S)-2-[2-(4-hydroxyphenyl)acetamido]-3-phenylpropanoate]",IC50,[1],3.7 µM
same,IC50,[2],5.7 µM
same,IC50,[3],5.4 µM
same,The time of onset of diarrhea,"[4]; 50 mg/kg, M ± m, n = 10, observation 4 hours",42.00 ± 3.43& min
same,increase of the time to the onset of diarrhea,[4]; summary of Table 6,2 times
same,"Content, % from the initial, Mean (n = 2)",[5]; 0 hour,100%
same,"Content, % from the initial, Mean (n = 2)",[5]; 0.25 hour,85.4%
same,"Content, % from the initial, Mean (n = 2)",[5]; 1 hour,70.3%
same,"Content, % from the initial, Mean (n = 2)",[5]; 2 hour,50.1%
same,"Content, % from the initial, Mean (n = 2)",[5]; 4 hour,32.1%
same,"Content, % from the initial, Mean (n = 2)",[5]; 8 hour,16.4%
same,"Content, % from the initial, Mean (n = 2)",[5]; 24 hour,0.00%
same,"Content, % from the initial, Mean (n = 2)",[6]; 0 hour,100%
same,"Content, % from the initial, Mean (n = 2)",[6]; 0.25 hour,110%
same,"Content, % from the initial, Mean (n = 2)",[6]; 1 hour,79.1%
same,"Content, % from the initial, Mean (n = 2)",[6]; 2 hour,80.6%
same,"Content, % from the initial, Mean (n = 2)",[6]; 4 hour,67.2%
same,"Content, % from the initial, Mean (n = 2)",[6]; 8 hour,54.1%
same,"Content, % from the initial, Mean (n = 2)",[6]; 24 hour,33.8%
same,"Content, % from the initial, Mean (n = 2)",[7]; 0 hour,100%
same,"Content, % from the initial, Mean (n = 2)",[7]; 0.25 hour,38.3%
same,"Content, % from the initial, Mean (n = 2)",[7]; 1 hour,1.69%
same,"Content, % from the initial, Mean (n = 2)",[7]; 4 hour,0.00%
same,hydrolysis in the blood plasma (in words),"[8]; blood plasma of rats, after 15 minutes",almost completely hydrolyzed
same,"Content, % from the initial, Mean (n = 2)",[8]; 0 hour,100%
same,"Content, % from the initial, Mean (n = 2)",[8]; 0.25 hour,0.00%
same,"Content, % from the initial, Mean (n = 2)",[8]; 1 hour,0.00%
same,"Content, % from the initial, Mean (n = 2)",[8]; 2 hour,0.00%
same,"Content, % from the initial, Mean (n = 2)",[8]; 4 hour,0.00%
same,"Content, % from the initial, Mean (n = 2)",[8]; 8 hour,0.00%
same,"Content, % from the initial, Mean (n = 2)",[8]; 24 hour,0.00%
